Data on five compounds can be found in patent US7855200B2, “Method for treatment of gastric ulcers and ulcers induced by aspirin” (Council of Scientific and Industrial Research, priority 2006, dated 2010).

A word on the inhibition: it is the share of the control response that was lost under treatment.

What all share (assay type): in vivo, albino rats
Assay [1] relates to acetyl salicylic acid induced gastric lesions. In words: Acetyl salicylic acid (aspirin) induced gastric ulcer. Also noted: Ulcer index Mean(SE): scale not given here. Conditions: rats, 25 mg/kg per orally daily for five days, aspirin 200 mg/kg; for inhibition at 25 mg/kg: Rattus norvegicus, po, 120 h. Here is the method: Stress induced gastric ulceration The commercially available drug ranitidine (sigma), Omeprazole (sigma) and sucralfate (Merck) were used as reference standard in experimental models. The Tween-80 (SD fine chemicals) was used as vehicle for the administration of the drug, which is used as control. Antiulcer activity of the compounds under taken was studied. The animals were divided into 20 groups of 6 animals each. Group 1 received the vehicle Tween 80 (1%, 1 ml) which served as the control. Group 2 received ranitidine at a dose of 50-mg/kg body weight, which served as standard for comparison. Group 3 to 20 at a dose of 25 mg/kg body weight. Rats were administered per orally with a daily dose of the compounds and the drug ranitidine for a period of five days and then fasted for 24 hours. The […] acetyl salicylic acid (aspirin) at a dose of 200 mg/kg body weight was administered as a suspension in tween-80 (1%), 30 min after the drug administration each day. All drugs were administered orally on the 6th day after the last administration of the drugs and the ulcer inducing agent aspirin, the rats were killed by cervical dislocation and their stomach were opened along the greater curvature and washed with luke warm saline and examined under a dissecting microscope. The ulcer index was calculated for each stomach. […] The antiulcer activity of the compounds was studied. The animals were divided into 19 groups of 6 animals each. Group 1 received the vehicle Tween 80 (1%, 1 ml) which served as the control. Group 2 received ranitidine at a dose of 50-mg/kg-body weight, which served as standard for comparison. […] Rats were administered per orally with a daily dose of the compounds and the drug ranitidine to respective groups for a period of five days and then fasted for 24 hours. The […] acetyl salicylic acid (aspirin) at a dose of 200 mg/kg body weight was administered as a suspension in tween-80 (1%), 30 min after the drug administration each day. All drugs were administered orally on ht […] day after the last administration of the drugs and the ulcer inducing agent aspirin, the rats were killed by cervical dislocation and their stomach were opened along the greater curvature and washed with luke warm saline and examined under a dissecting microscope.

For assay [2], the system named is ethanol induced gastric ulcers. In words: Ethanol induced ulcers. The following applies: rats, 25 mg/kg, ethanol challenge; for inhibition at 25 mg/kg: Rattus norvegicus; for Acidity Total mEg / Gastric content / pH: 4 hours after pylorus ligation. Here is the method:
Stress induced gastric ulceration The commercially available drug ranitidine (sigma), Omeprazole (sigma) and sucralfate (Merck) were used as reference standard in experimental models. The Tween-80 (SD fine chemicals) was used as vehicle for the administration of the drug, which is used as control. The animals were divided into 22 groups of 6 animals each. Animals were deprived of food for 48 hours but had free access to water. Group 1 received the vehicle Tween 80 (1%, 1 ml) which served as the control. Group 2 received ranitidine at a dose of 50-mg/kg-body weight, which served as standard for comparison. Group 3 to received Omeprazole at a dose of 30-mg/kg body weight, which served as standard for comparison. Group 4 received sucralfate at a dose of 400-mg/kg body weight, which served as standard for comparison. Group 5 to 22 received at a dose of 25 mg/kg body weight. Lesions were induced 1 hour after ethanol challenge animals. The stomach was ligated at the pylorus under ether anesthesia. 4 hours after pylorus ligation, the animals were sacrificed and the contents drained and centrifuges at 5000 rpm for 10 minutes. Aliquots of supernatant were used for determination of total acid by titrating with 0.01N NaOH using topfers reagent and phenolphthalein indicators. […] The animals were divided into 9 groups of 6 animals each. Animals were deprived of food for 48 hours but had free access to water. Group 1 received the vehicle Tween 80 (1%, 1 ml) which served as the control. Group 2 received ranitidine at a dose of 50-mg/kg-body weight, which served as standard for comparison. Group 3 to received Omeprazole at a dose of 30-mg/kg body weight, which served as standard for comparison. Group 4 received sucralfate at a dose of 400-mg/kg body weight, which served as standard for comparison. […] Lesions were induced 1 hour after ethanol challenge animals. The stomach was ligated at the pylorus under ether anesthesia. 4 hours after pylorus ligation, the animals were sacrificed and the contents drained and centrifuges at 5000 rpm for 10 minutes. Aliquots of supernatant were used for determination of total acid by titrating with 0.01N NaOH using topfers reagent and phenolphthalein indicators.

In assay [3] the test system is gastric ulceration in cold restraint rats. In words: Cold restraint (stress) induced ulcers. The following applies: rats, 25 mg/kg per orally, 4° C. for 2 hours; for inhibition at 25 mg/kg: Rattus norvegicus, po. Also noted: Ulcer index Mean(SE): scale not given here.
Source text: (§1) The compounds taken under study for antigastric ulcer screening by four different models were selected using experimental albino rats: • 1. Aspirin induced gastric ulceration • 2. Pylorus ligated gastric ulceration • 3. Ethanol induced gastric ulceration • 4. Stress induced gastric ulceration
(§2) The commercially available drug ranitidine (sigma), Omeprazole (sigma) and sucralfate (Merck) were used as reference standard in experimental models. The Tween-80 (SD fine chemicals) was used as vehicle for the administration of the drug, which is used as control.
(§3) The antiulcer activity of the compounds was studied. The animals were divided into 21 groups of 7 animals each. Group 1 received the vehicle Tween 80 (1%, 1 ml) which served as the control. Group 2 received ranitidine at a dose of 50-mg/kg body weight, which served as standard for comparison. Group 3 to 21 at a dose of 25 mg/kg body weight. Animals were deprived of food 48 hours before the experiment. The water was allowed for free access. Rats were administered per orally with compounds and the drug ranitidine. The water was removed 1 hour before restraint and exposed to a temperature of 4° C. for 2 hours. Two hours after stress, the animals were sacrificed. The stressed animals were opened along the greater curvature and the severity of gastric ulcer was assessed in terms of mean ulcer index. 2.
as §3, with “8” for “21”, “6” for “7”, “50, 25, 15, 10 and 5” for “25”, “weight respectively.” for “weight.”, “index.” for “index. 2.”

For the next assay, the system named is Pylorus ligated rats. In words: Pylorus ligated ulcers. The following applies: 25 mg/kg, 4 hours after pylorus ligation; for inhibition at 25 mg/kg: Rattus norvegicus.
Source text: as §1, §2
The animals were divided into 19 groups of 6 animals each. Animals were deprived of food for 48 hours but had free access to water. Group 1 received the vehicle Tween 80 (1%, 1 ml) which served as the control. Group 2 received ranitidine at a dose of 50-mg/kg-body weight, which served as standard for comparison. […] After one hour of administration of drug the stomach was ligated at the pylorus under ether anesthesia. 4 hours after pylorus ligation, the animals were sacrificed and the contents drained and centrifuges at 5000 rpm for 10 minutes. Aliquots of supernatant were used for determination of total acid by titrating with 0.01N NaOH using topfers reagent and phenolphthalein indicators. 4.
The animals were divided into 7 groups of 6 animals each. Animals were deprived of food for 48 hours but had free access to water. Group 1 received the vehicle Tween 80 (1%, 1 ml) which served as the control. Group 2 received ranitidine at a dose of 50-mg/kg-body weight, which served as standard for comparison. Group 3 to 7 received at a dose of 50, 25, 15, 10 and 5 mg/kg body weight respectively. After one hour of administration of drug the stomach was ligated at the pylorus under ether anesthesia. 4 hours after pylorus ligation, the animals were sacrificed and the contents drained and centrifuges at 5000 rpm for 10 minutes. Aliquots of supernatant were used for determination of total acid by titrating with 0.01N NaOH using topfers reagent and phenolphthalein indicators.

As to `O=c1cc(-c2ccccc2)oc2cc(O)c(O)c(O)c12` [Baicalein, 5,6,7-trihydroxy-2-phenyl-chromen-4-one], in assay [1], testing at 25 mg/kg gave an inhibition of 9.51% and the “Ulcer index Mean(SE)” value is 40.83. In addition, in assay [2], 25 mg/kg produced 20% inhibition, the “Ulcer index Mean(SE)” value was 43.33 (±3.33), the “Acidity Total mEg” value is recorded as 45.21 (±3.10) mEg and the Gastric content was 3.5 (±0.20). For the same compound, in assay [2], the pH is listed as 3.33 (±0.10). For the same compound, in assay [3], the inhibition at 25 mg/kg is 3.52% and the “Ulcer index Mean(SE)” value was determined as 29.28. Besides, in the assay with Pylorus ligated rats, the “Acidity Total mEg” value is reported as 49.21 (±2.20) m Eg, the Gastric content is 2.00 (±0.22), the “Ulcer index Mean(SE)” value is given as 40.66 (±5.50) and the pH is on record as 3.01 (±0.30). The same compound registered an inhibition at 25 mg/kg in the assay on Pylorus ligated rats of 18.9%.

As for `COc1cc(O)c2c(=O)cc(-c3ccccc3)oc2c1` [Methoxy chrysin, 5-hydroxy-7-methoxy-2-phenyl-chromen-4-one], in assay [1], testing at 25 mg/kg gave an inhibition of 11.3% and the “Ulcer index Mean(SE)” value amounted to 40.00. Besides, in assay [2], 25 mg/kg produced 15% inhibition, the “Ulcer index Mean(SE)” value is 46.66 (±1.66), the “Acidity Total mEg” value is listed as 49.20 (±4.12) mEg and the Gastric content is recorded as 3.9 (±0.40). Moreover, in assay [2], the pH is 2.91 (±0.15). Further, in assay [3], the inhibition at 25 mg/kg was found to be 8.77% and the “Ulcer index Mean(SE)” value came to 27.14. In addition, in the assay with Pylorus ligated rats, the “Acidity Total mEg” value is 47.20 (±2.40) m Eg, the Gastric content is listed as 2.20 (±0.44), the “Ulcer index Mean(SE)” value is 48.80 (±3.07) and the pH is 3.20 (±0.25). Moreover, in the assay on Pylorus ligated rats, the inhibition at 25 mg/kg worked out at 2.62%.

For the compound `CN1CCN(CCCOc2cc(O)c3c(=O)cc(-c4ccccc4)oc3c2)CC1` [NMC-2, 5-Hydroxy-7-[3-(4-methyl-piperzin-1-yl]-propoxy)-2-phenyl hromen-4-one], in assay [1], the Inhibition % turned out to be 48.30% and the “Ulcer index Mean(SE)” value is on record as 23.33. Besides, in assay [2], the Inhibition % turned out to be 57.50%, the “Ulcer index Mean(SE)” value is recorded as 28.33 (±3.33), the “Acidity Total mEg” value is recorded as 30.26 (±0.42) mEg and the Gastric content is 4.8 (±0.06). For the same compound, the pH in assay [2] is reported as 4.75 (±0.28). Further, in assay [3], the Inhibition % stood at 59.67% and the “Ulcer index Mean(SE)” value was found to be 16.42. Further, in the assay on Pylorus ligated rats, the “Acidity Total mEg” value is recorded as 36.26 (±2.80) m Eg, the Gastric content is given as 1.90 (±0.62), the Inhibition % was determined as 43.47% and the “Ulcer index Mean(SE)” value is reported as 28.33 (±0.10). In the assay on Pylorus ligated rats, the pH is given as 4.25 (±0.14).

Consider `O=c1cc(-c2ccccc2)oc2cc(O)cc(O)c12` [Chrysin, 5,7-dihydroxy-2-phenyl-chromen-4-one], for which, in assay [1], the inhibition at 25 mg/kg came to 46.7% and the “Ulcer index Mean(SE)” value stood at 24.06. In assay [2], 25 mg/kg produced 9.01% inhibition, the “Ulcer index Mean(SE)” value was 60.66 (±2.88), the “Acidity Total mEg” value was 48.00 (±2.20) mEg and the Gastric content is listed as 4.20 (±0.02). Further, the pH in assay [2] is on record as 3.20 (±0.40). Further, in assay [3], 25 mg/kg produced 42.7% inhibition and the “Ulcer index Mean(SE)” value worked out at 23.03. In addition, in the assay on Pylorus ligated rats, the “Acidity Total mEg” value is reported as 56.00 (±0.82) m Eg, the Gastric content is 1.85 (±0.82), the “Ulcer index Mean(SE)” value is recorded as 37.21 (±0.26) and the pH is reported as 4.00 (±0.40). Also, in the assay with Pylorus ligated rats, the inhibition at 25 mg/kg came to 25.7%.

As for `COc1c(OC(=O)c2ccc(C)cc2)cc2oc(-c3ccccc3)cc(=O)c2c1O` [ORPM-1, 4-methyl-benzoic acid 5-hydroxy-6-methoxy-4-oxo-2-phenyl-4-H-chromen-7-yl ester], in assay [1], the Inhibition % amounted to 16.91% and the “Ulcer index Mean(SE)” value worked out at 37.49. Further, in assay [2], the Inhibition % was 28.75%, the “Ulcer index Mean(SE)” value is given as 47.50 (±1.11), the “Acidity Total mEg” value is on record as 44.24 (±0.62) mEg and the Gastric content is 3.0 (±1.50). The pH in assay [2] is 3.50 (±0.18). Besides, in assay [3], the Inhibition % is 24.23% and the “Ulcer index Mean(SE)” value was 22.85. Moreover, in the assay with Pylorus ligated rats, the “Acidity Total mEg” value was 45.24 (±0.30) m Eg, the Gastric content is on record as 2.20 (±0.22), the Inhibition % came out at 16.87% and the “Ulcer index Mean(SE)” value was 41.66 (±2.78). The pH in the assay with Pylorus ligated rats is given as 3.20 (±0.25).
